Test results as given in patent US6403805B1 (Janssen Pharmaceutica N.V., priority 1995, dated 2002).
Counter-ions that a name gives are not always drawn.

Tests used:
[1] = molecular target: T1, recombinant human MNL phosphodiesterase type IV B (Homo sapiens, UniProt Q07343); assay: Inhibition of recombinant human mononuclear lymphocyte (MNL) phosphodiesterase type IV B produced in insect cells with a baculovirus vector; format: biochemical; conditions: recombinant human MNL PDE IV B; 0.8 μM 3H-cAMP, pH 8, 37° C.; calculated graphically
T1 construct: made in house; host or cells: insect cells infected with recombinant baculovirus
Description: Inhibition of recombinant human mononuclear lymphoctye (MNL) phosphodiesterase type IV B produced in insect cells with a baculovirus vector
The alleviating and/or curing effect of the instant compounds on allergic and atopic diseases was assessed by an in vitro assay system to detect an inhibiting effect on the recombinant human MNL phosphodiesterase type IV B.
Seventy-two hours after infection with recombinant baculovirus, the insect cells were harvested and pelleted at 500 g for 5 minutes. The cells were lysed in 10 ml lysis-buffer consisting of 20 mM Tris, 10 mM EGTA, 2 mM Na2EDTA, 1% Triton-X-100, 1 mM Na3VO4, 10 mM NaF, 2 μg/ml of leupeptine, pepstatine and aprotinine, 0.3 μg/ml benzamidine and 100 μg/ml TPCK pH 7.5. After 5 minutes on ice, solubilized cells were centrifuged at 4000 rpm for 15 minutes at 4° C. The resulting supernatant was filtered through a 0.45 μm filter (Millipore) and brought to TBS buffer (50 mM Tris, 150 mM NaCl pH 7.4).
After washing the column with equilibration buffer, PDE IV was eluted in 1.5 ml fractions containing 37.5 μl 1M Tris pH 8. The fractions were dialyzed overnight against 20 mM Tris, 2 mM Na2EDTA and 400 mM NaCl pH 7.5 and tested for PDE IV activity. Identification was done on SDS PAGE and Western Blot (anti-FLAG-M2). Active fractions were pooled, brought to 10% glycerol and stored at −70° C.
The incubation mixture (pH 8) (200 μl) contained 20 mM Tris, 10 mM magnesium sulphate, 0.8 μM ^3H-cAMP (310 mCi/mmole) and the phosphodiesterase type IV, the amount depending on the enzymatic activity.
When the effect of different compounds on phosphodiesterase activity was tested, the medium without cAMP was incubated with the compound(s) or its carrier (DMSO-1% final concentration) for 5 min. The enzymatic reaction was started by addition of ^3H-cAMP and stopped 10 min later after transferring the microtiter-plate in a waterbath at 100° C. for 5 min. After cooling to room temperature, alkaline phosphatase (0.25 μg/ml) was added and the mixture was incubated at 37° C. for 20 min. 100 μl of the mixture was subsequently applied to a GF-B filter-microtiter-plate (Millipore) filled with 300 μl DEAE-Sephadex-A25 suspension. The plate was washed 3 times with 75 μl 20 mM Tris pH 7.5 and the filtrates were collected for counting in the Packard Top Count scintillation counter.
The inhibiting effect of the present compounds on recombinant human MNL phosphodiesterase PDE IV B was measured at different concentrations of the instant compounds. The IC50 values (expressed in M) were calculated graphically from the thus obtained inhibition values.

[2] = test system: dextran-induced oedema formation in mouse ear; assay: Dextran-induced oedema formation in mouse ear; format: in vivo, Male Swiss mice; conditions: Mus musculus, 1 h; oral dose of 5 mg/kg in PEG-200, one hour before i.v. dextran T500/pontamine sky-blue; vs background blueing value; read-out: % inhibition of the extravasation of the dye
Description: Dextran-induced oedema formation in mouse ear Systemic injection of dextran T500 in normal, non-sensitized mice elicits increased vascular permeability, leading to extravasation and oedema of the extremities. When dextran is injected together with a blue dye, blueing of the ears is the most prominent feature of oedematous response. Male Swiss mice weighting 24-26 g were orally pretreated with the test compound dissolved in PEG-200 at different concentrations or solvent. One hour later, the mice were given an intravenous injection with an isotonic saline solution containing 12 mg/ml dextran T500 and 2.6 mg/ml pontamine sky-blue dye, in a volume of 0.1 ml per 10 g body weight. One hour and forty-five minutes later, the animals are sacrificed by ether and their ears removed. Extraction and quantification of the extravasated dye is done as described by Van Wauwe and Goossens (Drug Dev. Res. 1986, 8, 213-218). The extravasation of the dye is characterized by the blueing value which is defined as the concentration of the extracted dye in both ears. The background blueing value was determined once as the mean blueing value obtained by injecting a group of mice with a saline solution containing only dextran T500 and the blue dye. Table 6 lists the percentage inhibition of the extravasation of the dye when compared with the background extravasation of the dye when the test compound was administered at a dose of 5 mg/kg. The test compounds indicated by an asterisk (*) were tested at a dose of 2.5 mg/kg

T1 sequence (Q07343 whole entry): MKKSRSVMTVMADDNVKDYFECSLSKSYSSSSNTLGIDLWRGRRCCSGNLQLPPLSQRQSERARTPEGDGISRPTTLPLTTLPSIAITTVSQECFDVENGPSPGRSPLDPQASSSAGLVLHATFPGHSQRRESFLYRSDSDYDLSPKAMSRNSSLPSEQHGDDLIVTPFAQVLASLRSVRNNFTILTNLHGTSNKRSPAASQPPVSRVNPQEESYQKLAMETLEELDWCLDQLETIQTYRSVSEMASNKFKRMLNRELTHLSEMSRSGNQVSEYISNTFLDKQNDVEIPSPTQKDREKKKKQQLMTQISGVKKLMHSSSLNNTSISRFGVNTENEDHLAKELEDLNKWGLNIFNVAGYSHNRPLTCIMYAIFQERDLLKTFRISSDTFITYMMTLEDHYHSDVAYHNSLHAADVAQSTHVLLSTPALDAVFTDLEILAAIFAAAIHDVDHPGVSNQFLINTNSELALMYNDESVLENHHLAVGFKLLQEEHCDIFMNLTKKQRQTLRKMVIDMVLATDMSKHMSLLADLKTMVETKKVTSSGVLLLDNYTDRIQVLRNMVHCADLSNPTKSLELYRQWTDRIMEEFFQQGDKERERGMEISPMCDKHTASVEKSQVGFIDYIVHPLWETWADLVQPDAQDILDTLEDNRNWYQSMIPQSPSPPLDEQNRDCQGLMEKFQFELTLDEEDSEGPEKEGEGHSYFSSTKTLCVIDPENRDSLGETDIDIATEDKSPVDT

Compound | IC50 [1] [nM] | melting point [°C] | inhibition in vivo at 5 mg/kg [2] [%]
COc1ccc(C(C)(O)Cn2cc[nH]c2=O)cc1OC1CCCC1 (racemic) [Compound 12, (±)-1-[2-[3-(cyclopentyloxy)-4-methoxyphenyl]-2-hydroxypropyl]-1,3-dihydro-2H-imidazol-2-one] | 290 | 136.2 | 87.5
COc1ccc(C(N)CN2CCN(Cc3ccccc3)C2=O)cc1OC (racemic) (as salt: hydrochloric acid salt) [Compound 11, (±)-1-[2-amino-2-(3,4-dimethoxyphenyl)ethyl]-3-(phenylmethyl)-2-imidazolidinone] | – | 221.7 | –
COc1ccc(C(CN2CCN(Cc3ccccc3)C2=O)NC(C)=O)cc1OC (racemic) [Compound 14, (±)-N-[1-(3,4-dimethoxyphenyl)-2-[2-oxo-3-(phenylmethyl)-1-imidazolidinyl]ethyl]acetamide] | – | 156.4 | 32.3

Continued, in another order:

IC50 [1] [nM] | melting point [°C] | Compound | inhibition in vivo at 5 mg/kg [2] [%]
– | 110.5 | COc1ccc(C2(Cn3ccn(Cc4ccccc4)c3=O)CC2)cc1OC [Compound 21, 1-[[1-(3,4-dimethoxyphenyl)cyclopropyl]methyl]-1,3-dihydro-3-(phenylmethyl)-2H-imidazol-2-one] | –
– | 133.6 | CCOC(Cn1cc[nH]c1=O)c1ccc(OC)c(OC)c1 (racemic) [Compound 15, (±)-1-[2-(3,4-dimethoxyphenyl)-2-ethoxyethyl]-1,3-dihydro-2H-imidazol-2-one] | –
